Measured values from patent US20030171293A1, “Neuropeptide receptor and uses thereof” (Pfizer Inc., priority 2002, published 2003).
Where a SMILES comes first, the peptide text is derived from it. Bridges are numbered along the chain shown (N, C = ends). [ ]: non-standard residue; d: D form. dTrp(2-Me) = Cc1[nH]c2ccccc2c1C[C@@H](N)C(=O)O; d2Nal = N[C@H](Cc1ccc2ccccc2c1)C(=O)O; Nle = CCCC[C@H](N)C(=O)O

Columns and labels:
receptor MRGX2 = biological target: T1, receptor MRGX2 (Homo sapiens, UniProt Q96LB1); experiment: Functional assay measuring intracellular calcium mobilisation (FLIPR); assay type: cell-based; conditions: for EC50: Preliminary EC50 data for receptor MRGX2, transiently transfected cells, Fluo3 calcium response; for response of MRGX2 receptor: at a concentration of 1 μM
T1 construct: expressed in transfected cells; host or cells: host line such as HEK293 or CHO-K1, stably expressing Galpha15/Gqi-5
T1 sequence (Q96LB1 1-330): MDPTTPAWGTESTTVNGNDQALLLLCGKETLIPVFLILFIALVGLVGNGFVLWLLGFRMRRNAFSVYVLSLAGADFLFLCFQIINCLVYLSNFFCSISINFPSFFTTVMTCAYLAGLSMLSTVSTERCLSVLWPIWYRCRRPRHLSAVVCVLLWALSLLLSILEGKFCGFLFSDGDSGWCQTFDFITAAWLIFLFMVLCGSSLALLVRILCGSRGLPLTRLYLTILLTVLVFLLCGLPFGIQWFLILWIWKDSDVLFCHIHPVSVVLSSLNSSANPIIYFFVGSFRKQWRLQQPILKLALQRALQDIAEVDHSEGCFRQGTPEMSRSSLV
Procedure: 5×10^6 cells of a suitable host cell line, chosen to express a low number of endogenous receptors (e.g. HEK293 or CHO-K1) and engineered to stably express Gα15/Gqi-5, were transiently transfected with 7.5 μg of cDNA encoding receptor MRGX2 in a suitable mammalian cell expression vector, or vector alone, using Lipofectamine Plus® reagent (Gibco BRL) as per the manufacturer's protocol. If the cells were intended for a ligand binding assay or microphysiometry, they were incubated for 24-72 hours post transfection, and then harvested. If a microtitre plate-based assay was intended, the cells were detached from the flask using Trypsin/EDTA solution (LTI) 24 hours post transfection, and seeded into e.g. a black sided, Poly-D-lysine-treated, 96-well plate (Becton Dickinson) at 5×10^4 cells/well density. The plates were left overnight to allow the cells to adhere to the bottom of the wells.
Fluorescence Imaging Plate Reader (FLIPR®) technology was employed as a means to detect activation of receptor MRGX2 by various potential GPCR agonists.
24 hrs post-transfection, the cells were detached from the flask using Trypsin/EDTA solution (LTI) and seeded into a black sided, Poly-D-lysine-treated, 96-well plate (Becton Dickinson) at 5×10^4 cells/well density. The plates were left overnight to allow the cells to adhere to the bottom of the wells. The medium was removed from the cells and replaced with 100 μl warm (37° C.) dye loading solution (50 μg Fluo3 (Molecular Probes) in 20 μl DMSO+20% pluronic acid in DMSO, added to 11 ml Dulbecco's Modified Eagles Medium containing 1× Probenecid (100× Probenecid—0.71 g Probenecid was dissolved in 5 ml 1 M NaOH and 5 ml Dulbeccos' Phosphate Buffered Saline (PBS), per plate; Probenecid (Molecular Probes) inhibits activity of the anion transport protein, thus improving dye loading). The plates were then incubated for 1 hr at 37° C. Plates were subsequently washed with 250 μl of wash buffer per well (5 ml 100× Probenecid stock+495 ml PBS, pH 7.4) 4 times. The plates were returned to the 37° C./5%CO2 incubator for 30 mins prior to processing within the FLIPR® instrument. The FLIPR® processing involved reading the fluorescence for all samples for 2 minutes; during this time the fluorescence baseline was determined for 10 seconds. The desired amount of compounds (i.e. potential GPCR agonists) was then automatically transferred to the wells and the fluorescence was continuously monitored for the remainder of the time. All compounds were diluted in wash buffer.

guinea pig ileum = conditions: GPI assay; cited from earlier work
food intake = conditions: i.c.v., free feeding rats; maximal response at 1 nmol dose; cited from earlier work

Compound	EC50 (receptor MRGX2) [µM]	other results
NCCC[C@@H](NC(=O)[C@@H]1CCCN1C(=O)[C@@H]1CSSCCC(=O)N[C@@H](Cc2ccc(O)cc2)C(=O)N[C@@H](Cc2ccccc2)C(=O)N[C@@H](CCC(N)=O)C(=O)N[C@@H](CC(N)=O)C(=O)N1)C(=O)NCC(N)=O [(Deamino-Cysl,D-Orn^8) Vasopressin]	> 10	–
CC[C@H](C)[C@H](NC(=O)[C@H](CCCNC(=N)N)NC(=O)[C@H](CCCNC(=N)N)NC(=O)[C@H](CC(C)C)NC(=O)[C@H](Cc1ccccc1)NC(=O)CNC(=O)CNC(=O)[C@@H](N)Cc1ccc(O)cc1)C(=O)N[C@@H](CCCNC(=N)N)C(=O)N1CCC[C@H]1C(=O)N[C@@H](CCCCN)C(=O)N[C@@H](CC(C)C)C(=O)N[C@@H](CCCCN)C(=O)N[C@@H](Cc1c[nH]c2ccccc12)C(=O)N[C@@H](CC(=O)O)C(=O)N[C@@H](CC(N)=O)C(=O)N[C@@H](CCC(N)=O)C(=O)O [Dynorphin A]	1.85	potency relative to [Leu]-enkephalin (guinea pig ileum): 700 times; potency relative to normorphine (guinea pig ileum): about 200 times; potency relative to β-endorphin (guinea pig ileum): 50 times
CC(=O)N[C@H]1CSSC[C@@H](C(=O)N2CCC[C@H]2C(=O)N2CCC[C@H]2C(=O)N[C@@H](CCCCN)C(=O)N[C@@H](CC(=O)O)C(N)=O)NC(=O)CNC(=O)[C@H](Cc2c[nH]c3ccccc23)NC(=O)[C@H](CCCNC(=N)N)NC(=O)[C@@H](Cc2ccc3ccccc3c2)NC(=O)[C@H](Cc2c[nH]cn2)NC(=O)[C@H](CCC(=O)O)NC1=O [HS014] (Ac-CEH[d2Nal]RWGCPPKD-NH2; disulfide 1-8; N-terminus and C-terminus assumed)	> 10	–
CCCC[C@@H]1NC(=O)[C@@H](NC(C)=O)CSSC[C@@H](C(N)=O)NC(=O)CNC(=O)[C@H](Cc2c[nH]c3ccccc23)NC(=O)[C@H](CCCNC(=N)N)NC(=O)[C@@H](Cc2ccc3ccccc3c2)NC(=O)[C@H](Cc2c[nH]cn2)NC(=O)[C@H](CCCNC(=N)N)NC1=O [HS024, (Acetyl-Cys^3,Nle^4,Arg^5,D-2-Nal^7,Cys^11)-α-MSH (3-11) amide] (Ac-C[Nle]RH[d2Nal]RWGC-NH2; disulfide 1-9 (inferred))	–	effect on food intake (food intake): dose dependant increase in food intake
Cc1[nH]c2ccccc2c1C[C@@H](NC(=O)[C@@H](N)Cc1cnc[nH]1)C(=O)N[C@@H](C)C(=O)N[C@@H](Cc1c[nH]c2ccccc12)C(=O)N[C@H](Cc1ccccc1)C(=O)N[C@@H](CCCCN)C(N)=O [Hexarelin] (H-H[dTrp(2-Me)]AW[dF]K-NH2)	9.5	–
CC(C)C[C@H](NC(=O)CNC(=O)[C@H](CCC(=O)O)NC(=O)CNC(=O)[C@H](C)N)C(=O)N[C@@H](CC(N)=O)C(=O)N[C@@H](CO)C(=O)N[C@@H](CCC(N)=O)C(=O)N[C@@H](Cc1ccccc1)C(=O)N[C@@H](Cc1c[nH]c2ccccc12)C(=O)N[C@@H](CO)C(=O)N[C@@H](CC(C)C)C(=O)N[C@@H](C)C(=O)N[C@@H](C)C(=O)N1CCC[C@H]1C(=O)N[C@@H](CCC(N)=O)C(=O)N[C@@H](CCCNC(=N)N)C(=O)N[C@@H](Cc1ccccc1)C(N)=O [NPAF] (H-AGEGLNSQFWSLAAPQRF-NH2; N-terminus assumed)	> 10	–
CC(C)C[C@H](NC(=O)[C@@H](N)CO)C(=O)N[C@@H](C)C(=O)N[C@@H](C)C(=O)N1CCC[C@H]1C(=O)N[C@@H](CCC(N)=O)C(=O)N[C@@H](CCCNC(=N)N)C(=O)N[C@@H](Cc1ccccc1)C(N)=O [NPSF] (H-SLAAPQRF-NH2)	> 10	–
CC(C)C[C@H](NC(=O)[C@H](CCCCN)NC(=O)[C@H](CCCN=C(N)N)NC(=O)[C@H](C)NC(=O)[C@H](CO)NC(=O)[C@H](CCCCN)NC(=O)[C@H](CCCN=C(N)N)NC(=O)[C@H](C)NC(=O)CNC(=O)[C@@H](NC(=O)[C@H](Cc1ccccc1)NC(=O)CNC(=O)CNC(=O)[C@@H](N)Cc1ccccc1)[C@@H](C)O)C(=O)N[C@@H](C)C(=O)N[C@@H](CC(N)=O)C(=O)N[C@@H](CCC(N)=O)C(=O)O [Nociceptin]	> 10	–
C[C@@H](O)[C@@H]1NC(=O)[C@H](CCCCN)NC(=O)[C@@H](Cc2c[nH]c3ccccc23)NC(=O)[C@H](Cc2ccccc2)NC(=O)[C@@H](NC(=O)[C@H](N)Cc2ccccc2)CSSC[C@@H](C(=O)N[C@H](CO)[C@@H](C)O)NC1=O [Octreotide]	> 10	–
α-MSH	–	response of MRGX2 receptor (receptor MRGX2): responds
γ-MSH	–	response of MRGX2 receptor (receptor MRGX2): responds
